Each structure is given as a SMILES string.

Turning to `O=C1NC(=O)c2ccc(N3CCCCC3)cc2/C1=C/Nc1ccc(CN2CCCCC2)cc1`, the melting point – broadly, the temperature, or range, at which the solid turns liquid – lay in the range of 211 to 212 °C.
In turn, `COC(=O)C1=NC2=COc3cc(C)ccc3N2C1C(=O)O` (centres undefined) had a melting point of 176 to 177 °C.
Turning to `CC(C)(C)OC(=O)CN(Cc1cccc(Cl)c1)S(=O)(=O)c1ccc2c(Cl)cnc(Cl)c2c1`, the melting point fell in the range of 141 to 143 °C.
Compound `COc1ccc(CC(=O)NC(NC(=NC#N)Nc2cc(F)ccc2F)C(C)(C)C)cc1OC` (centres undefined) gave a melting point of 190 to 191 °C.
In the case of `CCCc1nc(C(C)(C)O)c(C(=O)O)n1Cc1ccc(-c2ccccc2-c2nnn[nH]2)cc1` it was 166 to 169 °C; in that of `CC1(c2ccc(N)cc2)C(=O)c2c(Cl)cc(Cl)cc2N(Cc2ccccc2)C1=O` (centres undefined), 209 to 210 °C.
Under `COc1ccc(N2CCN(CCC3OCCc4c(C(N)=O)cccc43)CC2)cc1` (centres undefined) stands 185 to 186 °C; under `CC1(C)CC(=O)OC1CC(=O)c1ccc(Cl)cc1` (centres undefined), 76 to 80 °C.
In the case of `O=C(O)c1ccccc1COc1ccc(CCCO)cc1` it was 139 to 140 °C; in that of `CN(C)CC(O)CC1(O)c2ccccc2CCc2ccccc21` (centres undefined), 144 to 146 °C; in that of `CNc1nc(-c2cccc(NC(=O)c3ccccc3OC)c2)c2cc(OC)c(OC)cc2n1`, 194 to 196 °C.
In the case of `O=C1OC(CN2CCC(O)(c3ccc(F)cc3)CC2)CN1c1ccc(F)cc1` (centres undefined), the melting point lay within 145 to 147 °C.
Under `CCC(C)(C)c1cc(-c2cccc(C=C3SC(N4CCCC4)=NC3=O)c2)ccc1O` stands 282 to 283 °C; under `Cc1ccc(S(N)(=O)=O)cn1`, 151 to 155 °C.
In the case of `COc1ccc(C(=O)Nc2ccccc2)cc1NCc1cccc2ccccc12` it was 172 to 174 °C; in that of `O=C(O)c1c(O)cccc1Cc1cccs1`, 155 to 158 °C; in that of `Cc1cn(-c2cc(C)c(N)c(Br)c2)c(C)n1`, 176 to 180 °C.
Under `C=CCc1c(O)cccc1C1=NNC(=O)CC1` stands 197 to 200 °C; under `CN1C(=O)C(NC(=S)Nc2ccccc2)N=C(c2ccccc2)c2ccccc21` (centres undefined), 209 to 211 °C.
In the case of `CCN(CC)c1cc(C)c2c(c1)C(=O)OC2=O`, the melting point worked out at 128 °C.
In the case of `Cc1nc(C)c(Cl)c(NCc2nccc(SCCCSCCO)c2C)n1` it was 134 to 137 °C; in that of `N#Cc1ccc(NC(=S)NCc2cccnc2)cc1`, 181 °C.
Consider `Cn1cc(-c2cc3cccnc3[nH]2)c2cc(C(=O)NCC(O)CO)ccc21` (centres undefined), for which the melting point lay within 171 to 172 °C.
Under `CN(c1cccc2cc(-c3nc(CCl)cs3)[nH]c12)S(=O)(=O)c1cccs1` stands 153 to 154 °C; under `CC(C)Nc1cccnc1N1CCN(C(=O)c2ccc(C(=O)NC(C)(C)C)cn2)CC1`, 161 to 162 °C.
For the compound `CCN1c2ncccc2C(=O)N(C)c2ccc(-c3c[nH]c(C(C)=O)c3)nc21`, the melting point is 219 to 220 °C.
Compound `CSc1nccn1N=Cc1ccccc1` showed a melting point of 95 to 97 °C.
`CN1CC(C(=O)CO)CC2c3cccc4[nH]cc(c34)CC21` (centres undefined) showed a melting point of 202 to 203 °C.
Compound `Cc1c(-c2ccc(O)cc2)sc(C#N)c1-c1ccc(O)cc1` yielded a melting point of 282 to 284 °C.
In the case of `Cc1ncn(-c2nc(-c3ccc(Cl)cc3)c(CCC(=O)O)o2)c1C` it was 225 to 226 °C.
Compound `COc1cc(C)nc(NC(=O)NS(=O)(=O)c2ccccc2C2CC2(Cl)Cl)n1` (centres undefined) displayed a melting point of 187 to 191 °C.
In the case of `N#CC=C1CCN(c2ccc(N3CC(CNC(=O)C4CCCN4)OC3=O)cc2F)CC1` (centres undefined) it was 155 °C.
Compound `CN(C)C=C1Nn2c(nc(-c3ccc([N+](=O)[O-])o3)c2N)S1` came in with a melting point of 304 °C.
In the case of `Nc1nc2c(ncn2C2CC(CO)C(O)C2F)c(=O)[nH]1` (centres undefined) it was 266 to 269 °C; in that of `COc1ccc(C)cc1NC(=O)Nc1ccc(N2CCN(C(=O)Nc3c(C)cccc3C(=O)O)CC2)cc1`, 159 to 160 °C.
Regarding `CNC(=O)N(O)Cc1ccc(OCc2ccccc2)cc1`, the melting point fell in the range of 150 to 153 °C.
Under `CC(C)(C)NC(=O)[C@@H]1CCCN1C(=O)[C@@H](O)[C@@H](N)Cc1ccccc1` stands 159 to 161 °C.
In the case of `COc1ccc(NS(=O)(=O)c2ccc([N+](=O)[O-])cc2OC)cc1` it was 180 to 182 °C; in that of `CCOC(=O)C1(F)C(=O)NC(=O)NC1O/N=C\c1ccc(C)o1` (centres undefined), 163 to 164 °C; in that of `CC(C)(C)c1ccc2c(c1)[C@H]1Cc3ccccc3[C@@]1(C)N2` (relative stereo), 82 to 84 °C.
In turn, `COC(=O)c1cc(N2CCCC2)c(Oc2cc(C)cc(C)c2)c(S(N)(=O)=O)c1` yielded a melting point of 208 to 209 °C.
As to `CNC(=C[N+](=O)[O-])NCCSCc1csc(CO)n1`, the melting point is 131 to 132 °C.
As to `Cc1cc(O)cnc1Cl`, the melting point lay within 126 to 128 °C.
On to `Oc1ccc2c(c1)C13CCCCC1N(C2)N(CC1CC1)CC3` (single isomer, unassigned; (+)), for which the melting point lay within 151 to 153 °C.
Under `COc1cc(NC(=O)Oc2ccccc2)ccc1S(=O)(=O)n1c(=O)n(C2CCCCC2)c2cc(Cl)ccc21` stands 236 °C.
In the case of `N#Cc1ccc(C(=O)Nc2cccc(C(=O)O)c2)cc1` it was 267 °C; in that of `CCOC(=O)NNc1nc2ccccc2n2cnc(C(=O)OCC)c12`, 126 to 128 °C; in that of `C=CC[C@H]1Cc2c(OCOC)cccc2C(=O)O1`, 74 to 75 °C.
Under `CCCCC[C@H]1CC[C@H](c2ccc(CC#N)cc2)CC1` stands 53 °C; under `Cc1cc(C#N)cc(CC#N)c1`, 63 to 64 °C.
As for `COc1cc(N)c(Cl)cc1C(=O)NCC1CCN(CCCSc2ccccc2)CC1`, the melting point was in the range of 146 to 148 °C.
Under `Nc1ccccc1C(=O)C1CCCCC1` stands 74 to 75 °C.
As for `CCCc1c(OCCCOc2ccc3c(c2CCC)OC(C(C)=O)(C(=O)OC)CC3)ccc(C(C)=O)c1O` (centres undefined), the melting point was in the range of 58 to 59 °C.
Compound `CS(=O)(=O)OCC(CC1CCCCC1)c1ccc(Cl)cc1Cl` (centres undefined) displayed a melting point of 105 °C.
Under `COc1cc(O)c(N2CCN(CCN3CC(C)(C)C3)C2=O)cc1Cl` stands 138 °C; under `COC(=O)c1ccc(Cl)cc1OS(C)(=O)=O`, 82.5 to 84.5 °C.
In the case of `Cc1c(SCCCN2CCN(Cc3ccncc3)CC2)ccnc1CNc1cnc2ccccc2c1`, the melting point is 145 to 150 °C.
Under `O=C1OC(=O)c2c(Br)c(Sc3ccccc3)c(Sc3ccccc3)c(Br)c21` stands 183 to 184 °C; under `COc1ccc(C)cc1NC(=O)Nc1ccc(N2CCN(C(=O)OC(C)(C)C)CC2)cc1C`, 169 to 171 °C.
Compound `Nc1cc(-n2cc(C(=O)O)c(=O)c3cc(F)c(NCC(O)C(F)(F)F)c(Cl)c32)c(F)cc1F` (centres undefined) returned a melting point of 134 to 138 °C.
Under `COC(=O)C(c1cc2c(cc1Cl)OCO2)c1c[nH]c2cc(Br)ccc12` (centres undefined) stands 172 to 174 °C; under `CC(C)(NCCONC(C)(C)C(=O)CCn1ccnc1[N+](=O)[O-])C(=O)CCn1ccnc1[N+](=O)[O-]`, 90 to 92 °C.
Under `O=S(=O)(Cl)c1ccccc1Cn1cncn1` stands 180 to 195 °C; under `Fc1cccc2sc(C3=CCNCC3)cc12`, 83 to 86 °C.
Under `COc1ccc(C2=NN(Cc3ccccc3Cl)C(=O)[C@H]3CCCC[C@@H]23)cc1OC` (relative stereo) stands 101 to 104 °C; under `CCCC1COC(Cn2nc[nH]c2=S)(c2ccc(Cl)cc2Cl)O1` (centres undefined), 128 °C.
On to `O=C(O)c1cc(Cl)c(Cl)nc1Cl`, for which the melting point lay in the range of 164 to 168 °C.
Under `CC(C)(C)c1nc(C=C2CCOC2=O)nc(C(C)(C)C)c1O` stands 158 to 160 °C; under `CC(C)(C)c1cc(-c2c[nH]c(CNC(=O)OCc3ccccc3)n2)cc(C(C)(C)C)c1O`, 212 to 213 °C; under `Cc1c(Cl)cccc1S(=O)(=O)Nc1nc(CC(=O)Oc2ccccc2)cs1`, 189 °C.
Under `NC(CCc1ccccc1CP(=O)(O)O)C(=O)O` (centres undefined) stands 247 to 249 °C.
Under `CC(C)c1ccc(NCc2ccc(N(C)C)cc2)cc1` stands 71 to 73 °C; under `CC(C)(C)OC(=O)NC1CCN(C(=O)C2CCN(C(=O)OCc3ccccc3)CC2)CC1`, 150 to 152 °C.
With `O=C(C=Cc1ccc(-c2ccc(O)c(Cl)c2)cc1)NO`, the melting point fell in the range of 172 to 175 °C.
Take `Cc1c(C(Cl)=Cc2ccc(C(F)(F)F)cc2)ccc2nc(N)nc(N)c12`: the melting point was more than 300 °C.
Under `O=c1cc(O)c(=O)c2ccc(O)cc2[nH]1` stands more than 350 °C; under `CCCCCN1C(=O)C2(COc3cc(-c4ccncc4)ccc32)c2ccccc21` (centres undefined), 107 to 110 °C; under `COc1cc(COc2nn(-c3ccccc3)cc2/C=C/C#N)ccc1OCc1nc(-c2ccccc2)oc1C`, 184 to 185 °C.
Under `CCC1Sc2cc(-c3cccc([N+](=O)[O-])c3)ccc2NC1=O` (centres undefined) stands 180 °C; under `CC1(C)CCC(C)(C)c2cc(C(=O)c3ccc(C(=O)O)cc3)c(OCc3ccccc3)cc21`, 212 to 213 °C; under `COC(=O)c1ccc(-c2ccc(OC)cc2)cc1`, 170 to 173 °C.
On to `CN(C)CCOc1ccc2c(c1)[nH]c(=O)c1c3ccccc3oc21`, for which the melting point lay in the range of 213 to 217 °C.
Compound `OCCC#Cc1ncccn1` had a melting point of 58 to 64 °C.
The compound `NC(=O)CCCCCc1ccc(Cl)cc1` came in with a melting point of 87 to 89 °C.
For `N#Cc1ncccc1C(=O)OCc1csc(-c2cccc(Cl)c2)n1`, the melting point came to 130 °C.
In the case of `N#CCCN1CCC(c2ccccc2)(c2ccccc2)CC1` it was 95 to 96 °C.
In the case of `O=[N+]([O-])c1ccc(C(O)C(COc2ccccc2)N2CCC(Cc3ccccc3)CC2)cc1` (centres undefined) it was 159 to 162 °C; in that of `CC(=O)CCCN1C(=O)c2ccccc2S1(=O)=O`, 90 to 93 °C; in that of `O=C(O)CN1CCN(c2ccnc(-c3nc(=O)c4ccccc4s3)c2)C1=O`, 271 to 273 °C.

(Values after a melting point compilation (Tetko et al.; mined from patent text by program, amines drawn as free bases though some values may be those of a salt).)
